Active and inactive are the calls of the source. No cut-off for these calls is given here.
Experiments:
[1] = biological target: T1, Protein cereblon/NAD-dependent protein deacylase sirtuin-6 (Homo sapiens, UniProt Q8N6T7+Q96SW2); test: PROTAC activity at CRBN/SIRT6 in human SK-HEP1 cells assessed as induction of SIRT6 degradation at 2 to 3 uM incubated for 36 hrs by Western blot analysis; type: cell-based; conditions: dose 2-3 µM
[2] = biological target: T1, Protein cereblon/NAD-dependent protein deacylase sirtuin-6; test: PROTAC activity at CRBN/SIRT6 in human SK-HEP1 cells assessed as hook effect upto 5 uM incubated for 36 hrs by Western blot analysis; type: cell-based
[3] = system: Huh-7; test: Effect on SIRT7 expression in human Huh-7 cells at 0.002 to 1 uM incubated for 36 hrs by Western blot analysis; type: functional, cell-based; conditions: dose 0.002-1 µM
[4] = system: SK-HEP1; test: Effect on H3K18Ac expression in human SK-HEP1 cells at 0.002 to 1 uM incubated for 36 hrs by Western blot analysis; type: functional, cell-based; conditions: dose 0.002-1 µM
[5] = system: SK-HEP1; test: Inhibition of colony formation in human SK-HEP1 cells at 5 uM incubated for 10 to 14 days with replacement of medium containing compounds on every 3 days in presence of sorafenib by crystal violet staining based analysis; type: functional, cell-based; conditions: time 10-14 day
[6] = system: SK-HEP1; test: Induction of cell cycle arrest in human SK-HEP1 cells assessed as accumulation at G2/M phase incubated for 72 hrs by PI staining based flow cytometry; type: functional; conditions: dose 2.5-10 µM
[7] = system: SK-HEP1; test: Induction of apoptosis in human SK-HEP1 cells at 2.5 uM incubated for 72 hrs in presence of CPT by Annexin V-FITC/PI staining based flow cytometry; type: functional, cell-based
[8] = system: SK-HEP1; test: Effect of SIRT6 mRNA expression in human SK-HEP1 cells at 2.5 uM incubated for 36 hrs by RT-qPCR analysis; type: functional, cell-based
[9] = system: SK-HEP1; test: Effect of SIRT7 mRNA expression in human SK-HEP1 cells at 2.5 uM incubated for 36 hrs by RT-qPCR analysis; type: functional, cell-based
[10] = system: SK-HEP1; test: Effect of SAP18 mRNA expression in human SK-HEP1 cells at 2.5 uM incubated for 36 hrs by RNA sequencing analysis; type: functional, cell-based
[11] = system: SK-HEP1; test: Effect of TFRC mRNA expression in human SK-HEP1 cells at 2.5 uM incubated for 36 hrs by RNA sequencing analysis; type: functional, cell-based
[12] = system: SK-HEP1; test: Effect of genes related to ubiquitin-mediated proteolysis in human SK-HEP1 cells at 2.5 uM incubated for 36 hrs by GSEA analysis; type: functional, cell-based
[13] = system: SK-HEP1; test: Effect of genes related to protein heterodimerization in human SK-HEP1 cells at 2.5 uM incubated for 36 hrs by GSEA analysis; type: functional, cell-based
[14] = system: SK-HEP1; test: Downregulation of FBXO44 expression in human SK-HEP1 cells at 2.5 uM incubated for 36 hrs; type: functional, cell-based
[15] = system: SK-HEP1; test: Downregulation of ALDOB expression in human SK-HEP1 cells at 2.5 uM incubated for 36 hrs; type: functional, cell-based
[16] = system: SK-HEP1; test: Downregulation of CCPG1 expression in human SK-HEP1 cells at 2.5 uM incubated for 36 hrs in presence of MG132; type: functional, cell-based
[17] = system: SK-HEP1; test: Downregulation of FBXO44 expression in human SK-HEP1 cells at 2.5 uM incubated for 36 hrs in presence of MLN4924; type: functional, cell-based
[18] = system: SK-HEP1; test: Downregulation of NAIF1 expression in human SK-HEP1 cells at 2.5 uM incubated for 36 hrs in presence of MLN4924; type: functional, cell-based
[19] = biological target: T1, Protein cereblon/NAD-dependent protein deacylase sirtuin-6; test: PROTAC activity at CRBN/SIRT6 in human SK-HEP1 cells assessed as disruption of CHD4 recruitment to DSB sites at 2.5 uM incubated for 36 hrs followed by VP16 treatment for 4 hrs by Western blot analysis; type: cell-based; conditions: time 40.0 hrs
[20] = biological target: T1, Protein cereblon/NAD-dependent protein deacylase sirtuin-6; test: PROTAC activity at CRBN/SIRT6 in human SK-HEP1 cells assessed as disruption of CHD4 recruitment to DSB sites at 2.5 uM incubated for 36 hrs followed by sorafenib treatment for 4 hrs by Western blot analysis; type: cell-based; conditions: time 40.0 hrs
[21] = Toxicity in BALB/c nude mouse xenografted with human SK-HEP1 cells assessed as pathological damage in liver at 10 mg/kg treated for 28 to 30 days by H and E staining based analysis; type: organism-based; conditions: in vivo, time 28-30 day
[22] = Toxicity in BALB/c nude mouse xenografted with human SK-HEP1 cells assessed as pathological damage in heart at 10 mg/kg treated for 28 to 30 days in presence of sorafenib by H and E staining based analysis; type: organism-based; conditions: in vivo, time 28-30 day
[23] = Toxicity in BALB/c nude mouse xenografted with human SK-HEP1 cells assessed as pathological damage in spleen at 10 mg/kg treated for 28 to 30 days in presence of sorafenib by H and E staining based analysis; type: organism-based; conditions: in vivo, time 28-30 day
[24] = Toxicity in BALB/c nude mouse xenografted with human SK-HEP1 cells assessed as pathological damage in lungs at 10 mg/kg treated for 28 to 30 days in presence of sorafenib by H and E staining based analysis; type: organism-based; conditions: in vivo, time 28-30 day
[25] = Toxicity in BALB/c nude mouse xenografted with human SK-HEP1 cells assessed as pathological damage in kidney at 10 mg/kg treated for 28 to 30 days in presence of sorafenib by H and E staining based analysis; type: organism-based; conditions: in vivo, time 28-30 day
[26] = Toxicity in BALB/c nude mouse xenografted with human SK-HEP1 cells assessed as pathological damage in liver at 10 mg/kg treated for 28 to 30 days under irradiation (3 Gy) by H and E staining based analysis; type: organism-based; conditions: in vivo, time 28-30 day
[27] = Toxicity in BALB/c nude mouse xenografted with human SK-HEP1 cells assessed as pathological damage in spleen at 10 mg/kg treated for 28 to 30 days under irradiation (3 Gy) by H and E staining based analysis; type: organism-based; conditions: in vivo, time 28-30 day
[28] = Toxicity in BALB/c nude mouse xenografted with human SK-HEP1 cells assessed as pathological damage in kidney at 10 mg/kg treated for 28 to 30 days under irradiation (3 Gy) by H and E staining based analysis; type: organism-based; conditions: in vivo, time 28-30 day
[29] = Toxicity in BALB/c nude mouse xenografted with human SK-HEP1 cells assessed as histopathological abnormalities in heart at 10 mg/kg treated for 28 to 30 days by H and E staining based analysis; type: organism-based; conditions: in vivo, time 28-30 day
[30] = Toxicity in BALB/c nude mouse xenografted with human SK-HEP1 cells assessed as histopathological abnormalities in spleen at 10 mg/kg treated for 28 to 30 days by H and E staining based analysis; type: organism-based; conditions: in vivo, time 28-30 day
[31] = Toxicity in BALB/c nude mouse xenografted with human SK-HEP1 cells assessed as histopathological abnormalities in heart at 10 mg/kg treated for 28 to 30 days in presence of sorafenib by H and E staining based analysis; type: organism-based; conditions: in vivo, time 28-30 day
[32] = Toxicity in BALB/c nude mouse xenografted with human SK-HEP1 cells assessed as histopathological abnormalities in spleen at 10 mg/kg treated for 28 to 30 days in presence of sorafenib by H and E staining based analysis; type: organism-based; conditions: in vivo, time 28-30 day
[33] = Toxicity in BALB/c nude mouse xenografted with human SK-HEP1 cells assessed as histopathological abnormalities in heart at 10 mg/kg treated for 28 to 30 days under irradiation (3 Gy) by H and E staining based analysis; type: organism-based; conditions: in vivo, time 28-30 day
[34] = system: SK-HEP1; test: Induction of apoptosis in human SK-HEP1 cells xenografted in BALB/c nude mouse assessed as increase in cleaved caspase-3 level at 10 mg/kg treated for 28 to 30 days under irradiation (3 Gy); type: functional, organism-based; conditions: time 28-30 day

T1 sequence (Q8N6T7 2-355 limits assumed): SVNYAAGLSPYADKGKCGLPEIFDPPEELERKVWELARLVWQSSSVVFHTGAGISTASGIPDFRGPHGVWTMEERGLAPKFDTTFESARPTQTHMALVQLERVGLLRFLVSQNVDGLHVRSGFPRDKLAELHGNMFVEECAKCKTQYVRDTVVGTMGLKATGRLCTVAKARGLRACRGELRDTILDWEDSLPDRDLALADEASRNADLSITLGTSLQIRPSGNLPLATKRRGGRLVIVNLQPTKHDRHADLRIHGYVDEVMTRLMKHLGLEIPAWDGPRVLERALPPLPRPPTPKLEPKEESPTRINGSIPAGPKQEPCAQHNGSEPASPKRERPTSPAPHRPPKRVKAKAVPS
T1 sequence (Q96SW2 whole entry partner): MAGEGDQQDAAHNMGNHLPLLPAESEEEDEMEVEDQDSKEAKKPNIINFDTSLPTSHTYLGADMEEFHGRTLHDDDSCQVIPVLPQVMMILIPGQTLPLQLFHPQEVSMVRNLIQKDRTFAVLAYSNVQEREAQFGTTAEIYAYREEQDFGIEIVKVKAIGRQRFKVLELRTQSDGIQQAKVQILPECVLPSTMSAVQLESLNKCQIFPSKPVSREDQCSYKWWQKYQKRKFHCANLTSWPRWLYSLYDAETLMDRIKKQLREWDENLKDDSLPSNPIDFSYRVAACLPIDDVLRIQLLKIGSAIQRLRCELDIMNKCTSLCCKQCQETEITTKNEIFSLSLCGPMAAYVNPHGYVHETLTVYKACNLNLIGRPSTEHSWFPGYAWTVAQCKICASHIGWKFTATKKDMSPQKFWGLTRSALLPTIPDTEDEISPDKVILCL

In the case of `Nc1cc(N2CCN(CC3CCN(c4cc5c(cc4F)C(=O)N(C4CCC(=O)NC4=O)C5=O)CC3)CC2)ccc1[N+](=O)[O-]` (centres undefined), the Activity [1] is reported as “Active”, the Activity [2] is reported as “inactive” and the Activity [3] is reported as “No effect”. For the same compound, the Activity [4] was “No effect”, the inhibition [5] was “Not active; Exhibited Weaker Inhibition” and the Activity [6] was “Dose-dependent-effect”. For the same compound, the Activity [7] was “Active”, the Activity [8] was “Active; Only Slight Downregulation Observed” and the Activity [9] was “No effect”. For the same compound, the Activity [10] was “Active”, the Activity [11] was “Active” and the Activity [12] was “Active”. For the same compound, the Activity [13] was “Active”, the Activity [14] was “Active” and the Activity [15] was “Active”. For the same compound, the Activity [16] was “inactive”, the Activity [17] was “inactive” and the Activity [18] was “inactive”. For the same compound, the Activity [19] was “Active”, the Activity [20] was “Active” and the Activity [21] was “Non-toxic”. The Activity [22] was “Non-toxic”, the Activity [23] was “Non-toxic” and the Activity [24] was “Non-toxic”. The Activity [25] was “Non-toxic”, the Activity [26] was “Non-toxic” and the Activity [27] was “Non-toxic”. For the same compound, the Activity [28] was “Non-toxic”, the Activity [29] was “Non-toxic” and the Activity [30] was “Non-toxic”. For the same compound, the Activity [31] was “Non-toxic”, the Activity [32] was “Non-toxic” and the Activity [33] was “Non-toxic”. For the same compound, the Activity [34] was “Active”.
